From article PMC6979384, “Characterization of the plant homeodomain (PHD) reader family for their histone tail interactions” (Epigenetics & Chromatin, 2020)
Where no end group is shown, it is not given here.

Experiments:
Assay in all cases: Histone peptide microarray
Format in all cases: binding, human
PHF21A = tested on: PHF21A
Procedure, shortened: (§1)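 Readout is array binding signal, reported as the mean and standard deviation over four replicates. Each purified GST-fused PHD domain was incubated at 0.5 μM with a library of 293 modified histone peptides.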

MLL5 = tested on: MLL5
Procedure, shortened: as §1

PHF2 = tested on: PHF2
Procedure, shortened: as §1

SP140L = tested on: SP140L
Procedure, shortened: as §1

KDM5A (1) = tested on: KDM5A (1)
Procedure, shortened: as §1

RAG2 = tested on: RAG2
Procedure, shortened: as §1

KDM4C (TTP) = tested on: KDM4C (TTP)
Procedure, shortened: as §1

ING3 = tested on: ING3
Procedure, shortened: as §1

MORC3 (CW) = tested on: MORC3 (CW)
Procedure, shortened: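 Each reader, produced as a GST fusion and purified, was tested at 0.5 μM on synthetic histone peptides (293 in total) carrying single or combinatorial marks. Intensities averaged over four replicates.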

TRIM66 (PB) = tested on: TRIM66 (PB)
Procedure, shortened: as §1

CHD4 (PPCC) = tested on: CHD4 (PPCC)
Procedure, shortened: as §1

KDM5B (3) = tested on: KDM5B (3)
Procedure, shortened: as §1

ING4 = tested on: ING4
Procedure, shortened: as §1

BAZ2B = tested on: BAZ2B
Procedure, shortened: as §1

DPF2 (PPC2W2) = tested on: DPF2 (PPC2W2)
Procedure, shortened: as §1

PHF23 = tested on: PHF23
Procedure, shortened: as §1

DIDO1 = tested on: DIDO1
Procedure, shortened: as §1

PHF13 = tested on: PHF13
Procedure, shortened: as §1

CHD5 (PCC) = tested on: CHD5 (PCC)
Procedure, shortened: as §1

KDM5A (3) = tested on: KDM5A (3)
Procedure, shortened: as §1

PHF8 = tested on: PHF8
Procedure, shortened: as §1

ING1 = tested on: ING1
Procedure, shortened: as §1

ING2 = tested on: ING2
Procedure, shortened: as §1

CHD5 (PPCC) = tested on: CHD5 (PPCC)
Procedure, shortened: as §1

AIRE (PP) = tested on: AIRE (PP)
Procedure, shortened: as §1

KDM5B (1) = tested on: KDM5B (1)
Procedure, shortened: as §1

ING5 = tested on: ING5
Procedure, shortened: as §1

KDM7A = tested on: KDM7A
Procedure, shortened: as §1

PHRF1 (RP) = tested on: PHRF1 (RP)
Procedure, shortened: as §1

TAF3 = tested on: TAF3
Procedure, shortened: as §1

BPTF (PB) = tested on: BPTF (PB)
Procedure, shortened: as §1

[1] = histone peptide array, GST-tagged reader, arrays performed twice, n of 4
[2] = histone peptide array, GST-tagged reader, PB = PHD + Bromodomain, arrays performed twice, n of 4
[3] = histone peptide array, GST-tagged reader, PPCC = Dual PHD + Dual Chromodomain, arrays performed twice, n of 4

H3.3K27vl (15-34): H3.3 15-34 was tested, and the “Array Heatmap value (peptide array signal)” value (“Array Heatmap value” below) (PHF21A; PHF21A, sheet "Array Heatmap", each array performed twice, total n = 4) was 0.4671, the “Array Heatmap value” value (MLL5; MLL5, sheet "Array Heatmap", each array performed twice, total n = 4) was 0.5405 and the “Array Heatmap value” value (PHF2; PHF2, sheet "Array Heatmap", each array performed twice, total n = 4) was 0.5263. For the same substance, the “Array Heatmap value” value (SP140L; SP140L, sheet "Array Heatmap", each array performed twice, total n = 4) was 0.3739, the “Array Heatmap value” value (KDM5A (1); KDM5A (1), sheet "Array Heatmap", each array performed twice, total n = 4) was 0.4391 and the “Array Heatmap value” value (RAG2; RAG2, sheet "Array Heatmap", each array performed twice, total n = 4) was 0.2413. The “Array Heatmap value” value (KDM4C (TTP); KDM4C (TTP), sheet "Array Heatmap", each array performed twice, total n = 4) was 0.4488, the “Array Heatmap value” value (ING3; ING3, sheet "Array Heatmap", each array performed twice, total n = 4) was 0.4849 and the “Array Heatmap value” value (MORC3 (CW); MORC3 (CW), sheet "Array Heatmap", each array performed twice, total n = 4) was 0.3607. The “Array Heatmap value” value (TRIM66 (PB); TRIM66 (PB), sheet "Array Heatmap", each array performed twice, total n = 4) was 0.5686, the “Array Heatmap value” value (CHD4 (PPCC); CHD4 (PPCC), sheet "Array Heatmap", each array performed twice, total n = 4) was 0.5729 and the “Array Heatmap value” value (KDM5B (3); KDM5B (3), sheet "Array Heatmap", each array performed twice, total n = 4) was 0.4603. For the same substance, the “Array Heatmap value” value (ING4; ING4, sheet "Array Heatmap", each array performed twice, total n = 4) was 0.4471, the “Array Heatmap value” value (BAZ2B; BAZ2B, sheet "Array Heatmap", each array performed twice, total n = 4) was 0.4362 and the “Array Heatmap value” value (DPF2 (PPC2W2); DPF2 (PPC2W2), sheet "Array Heatmap", each array performed twice, total n = 4) was 0.6907. For the same substance, the “Array Heatmap value” value (PHF23; PHF23, sheet "Array Heatmap", each array performed twice, total n = 4) was 0.5229, the “Array Heatmap value” value (DIDO1; DIDO1, sheet "Array Heatmap", each array performed twice, total n = 4) was 0.7045 and the “Array Heatmap value” value (PHF13; PHF13, sheet "Array Heatmap", each array performed twice, total n = 4) was 0.5845. The “Array Heatmap value” value (CHD5 (PCC); CHD5 (PCC), sheet "Array Heatmap", each array performed twice, total n = 4) was 0.7909, the “Array Heatmap value” value (KDM5A (3); KDM5A (3), sheet "Array Heatmap", each array performed twice, total n = 4) was 0.423 and the “Array Heatmap value” value (PHF8; PHF8, sheet "Array Heatmap", each array performed twice, total n = 4) was 0.3696. The “Array Heatmap value” value (ING1; ING1, sheet "Array Heatmap", each array performed twice, total n = 4) was 0.5627, the “Array Heatmap value” value (ING2; ING2, sheet "Array Heatmap", each array performed twice, total n = 4) was 0.6055 and the “Array Heatmap value” value (CHD5 (PPCC); CHD5 (PPCC), sheet "Array Heatmap", each array performed twice, total n = 4) was 0.5207. The “Array Heatmap value” value (AIRE (PP); AIRE (PP), sheet "Array Heatmap", each array performed twice, total n = 4) was 0.3881, the “Array Heatmap value” value (KDM5B (1); KDM5B (1), sheet "Array Heatmap", each array performed twice, total n = 4) was 0.5524 and the “Array Heatmap value” value (ING5; ING5, sheet "Array Heatmap", each array performed twice, total n = 4) was 0.3413. For the same substance, the “Array Heatmap value” value (KDM7A; KDM7A, sheet "Array Heatmap", each array performed twice, total n = 4) was 0.3156, the “Array Heatmap value” value (PHRF1 (RP); PHRF1 (RP), sheet "Array Heatmap", each array performed twice, total n = 4) was 0.4435 and the “Array Heatmap value” value (TAF3; TAF3, sheet "Array Heatmap", each array performed twice, total n = 4) was 0.2402. For the same substance, the “Array Heatmap value” value (BPTF (PB); BPTF (PB), sheet "Array Heatmap", each array performed twice, total n = 4) was 0.3408.

“H3.3K36ac (27-45): H3.3 27-45 (KSAPSTGGVK(Ac)KPHRYRPGT; UniProt P84243 28-46, looked up, fragment)” was tested, and the “Array Heatmap signal, PHF21A” value (PHF21A; [1]) was 0.4713, the “Array Heatmap signal, MLL5” value (MLL5; [1]) was 0.5589 and the “Array Heatmap signal, PHF2” value (PHF2; [1]) was 0.4404. For the same substance, the “Array Heatmap signal, SP140L” value (SP140L; [1]) was 0.378, the “Array Heatmap signal, KDM5A (1)” value (KDM5A (1); [1]) was 0.4872 and the “Array Heatmap signal, RAG2” value (RAG2; [1]) was 0.2614. For the same substance, the “Array Heatmap signal, KDM4C (TTP)” value (KDM4C (TTP); histone peptide array, GST-tagged reader, TTP = Tandem Tudor domain + PHD, arrays performed twice, n of 4) was 0.5383, the “Array Heatmap signal, ING3” value (ING3; [1]) was 0.4435 and the “Array Heatmap signal, MORC3 (CW)” value (MORC3 (CW); histone peptide array, GST-tagged reader, CW = CW-type Zn-finger, arrays performed twice, n of 4) was 0.2989. The “Array Heatmap signal, TRIM66 (PB)” value (TRIM66 (PB); [2]) was 0.5797, the “Array Heatmap signal, CHD4 (PPCC)” value (CHD4 (PPCC); [3]) was 0.5592 and the “Array Heatmap signal, KDM5B (3)” value (KDM5B (3); [1]) was 0.5076. The “Array Heatmap signal, ING4” value (ING4; [1]) was 0.4648, the “Array Heatmap signal, BAZ2B” value (BAZ2B; [1]) was 0.4933 and the “Array Heatmap signal, DPF2 (PPC2W2)” value (DPF2 (PPC2W2); histone peptide array, GST-tagged reader, PPC2W2 = Dual PHD + C2W2-type Zn-finger, arrays performed twice, n of 4) was 0.6599. The “Array Heatmap signal, PHF23” value (PHF23; [1]) was 0.4952, the “Array Heatmap signal, DIDO1” value (DIDO1; [1]) was 0.652 and the “Array Heatmap signal, PHF13” value (PHF13; [1]) was 0.6099. For the same substance, the “Array Heatmap signal, CHD5 (PCC)” value (CHD5 (PCC); histone peptide array, GST-tagged reader, PCC = PHD + Dual Chromodomain, arrays performed twice, n of 4) was 0.818, the “Array Heatmap signal, KDM5A (3)” value (KDM5A (3); [1]) was 0.4209 and the “Array Heatmap signal, PHF8” value (PHF8; [1]) was 0.3248. For the same substance, the “Array Heatmap signal, ING1” value (ING1; [1]) was 0.4834, the “Array Heatmap signal, ING2” value (ING2; [1]) was 0.5814 and the “Array Heatmap signal, CHD5 (PPCC)” value (CHD5 (PPCC); [3]) was 0.5516. For the same substance, the “Array Heatmap signal, AIRE (PP)” value (AIRE (PP); [1]) was 0.5459, the “Array Heatmap signal, KDM5B (1)” value (KDM5B (1); [1]) was 0.6658 and the “Array Heatmap signal, ING5” value (ING5; [1]) was 0.3709. For the same substance, the “Array Heatmap signal, KDM7A” value (KDM7A; [1]) was 0.4861, the “Array Heatmap signal, PHRF1 (RP)” value (PHRF1 (RP); [1]) was 0.3938 and the “Array Heatmap signal, TAF3” value (TAF3; [1]) was 0.2777. The “Array Heatmap signal, BPTF (PB)” value (BPTF (PB); [2]) was 0.3342.
